Assay results: patent publication US7705012B2, “Camptothecins conjugated in position 7 to cyclic peptides as cytostatic agents” (priority 2004, dated 2010)
Several values for one entry are separate records, joined by “and”; a condition that tells them apart may be missing. Equal entries are not always repeated. Where two headings read alike, the source gives them in different places.

Assays:
purified αvβ3 receptor = target: T1, purified αvβ3 receptor (Homo sapiens, UniProt P05106+P06756); assay: Binding to integrin αvβ3 receptors ([125I]echistatin competition)
T1 construct: purchased Chemicon CC1020
Experimental: Binding to Integrin αvβ3 Receptors
(§1) An aliquot of 100 μl was added to 96-well plates and incubated overnight at +4° C. Plates were washed once with buffer (50 mM Tris, pH 7,4, 100 mM NaCl, 2 mM CaCl2, 1 mM MgCl2, 1 mM MnCl2, 1% bovine serum albumin) and then incubated for another 2 hours at room temperature. Plates were washed twice with the same buffer and incubated for 3 hours at room temperature with the radioactive ligand [^125I]echistatin (Amersham Pharmacia Biotech) 0.05 nM in the presence of competition ligands. At the end of incubation, the wells were washed and the radioactivity determined using a gamma counter (Packard). Non-specific binding of the ligand was determined in the presence of excess cold echistatin (1 μM).
(§2) Evaluation of IC50 Parameters
(§3) The IC50 parameter was elaborated using “ALLFIT” software.

[1] = test system: PC3 human prostate carcinoma; assay: Cytotoxicity, sulphorodamine B test, PC3; format: cell-based; settings: PC3 cells, 72 h, cell survival; read-out: PC3 IC50 ± SD
Experimental: (§4) Cytotoxicity of the Conjugates on Different Tumor Cell Lines
(§5) To evaluate the effect of the compound on cell survival, the sulphorodamine B test was used. PC3 human prostate carcinoma, A498 human renal carcinoma, A2780 human ovarian carcinoma cells were used. A2780 and PC3 tumor cells were grown RPMI 1640 containing 10% fetal bovine serum (GIBCO), whereas A498 tumor cells were grown in EMEM containing 10% fetal bovine serum (GIBCO).
(§6) Tumor cells were seeded in 96-well tissue culture plates (Corning) at approximately 10% of confluence and were allowed to attach and recover for at least 24 h. […] The plates were incubated for 72 h at 37° C. At the end of the treatment, the plates were washed by remotion of the surnatant and addition of PBS 3 times. 200 μl PBS and 50 μl of cold 80% TCA were added. The plates were incubated on ice for at least 1 h. TCA was removed, the plates were washed 3 times for immersion in distilled-water and dried on paper and at 40° C. for 5 min. Then 200 μl of 0.4% sulphorodamine B in 1% acetic acid were added. The plates were incubated at room temperature for other 30 min. Sulphorodamine B was removed, the plates were washed for immersion in 1% acetic acid for 3 times, then they were dried on paper and at 40° C. for 5 min. Then 200 μl Tris 10 mM were added, the plates were kept under stirring for 20 min. The survival cell was determined as optical density by a Multiskan spectrofluorimeter at 540 nm. The amount of cells killed was calculated as the percentage decrease in sulphorodamine B binding compared with control cultures. The IC50 values were calculated with the “ALLFIT” program.

[2] = test system: A2780 human ovarian carcinoma cells; assay: Cytotoxicity, sulphorodamine B test, A2780; format: cell-based; settings: 72 h, cell survival, read-out: A2780 IC50 ± SD
Experimental: as §4, §5, §6

[3] = test system: A498 human renal carcinoma; assay: Cytotoxicity, sulphorodamine B test, A498; format: cell-based; settings: A498 cells, 72 h, cell survival; read-out: A498 IC50 ± SD
Experimental: as §4, §5, §6

purified αvβ5 receptor = target: T2, purified αvβ5 receptor (Homo sapiens, UniProt P06756+P18084); assay: Binding to integrin αvβ5 receptors ([125I]echistatin competition)
T2 construct: purchased Chemicon CC1020
Experimental: Binding to Integrin αvβ5 Receptors
as §1, with “7.4,” for “7,4,”, “0.15” for “0.05”, “Non-specific ligand” for “Non-specific”, “binding” for “binding of the ligand”
as §2, §3

For CC[C@@]1(O)C(=O)OCc2c1cc1n(c2=O)Cc2c-1nc1ccccc1c2/C=N\OCCNC(=O)CCC[C@@H]1NC(=O)[C@@H](Cc2ccccc2)NC(=O)[C@H](CC(=O)O)NC(=O)CNC(=O)[C@H](CCCNC(=N)N)NC1=O [ST2686], the IC50 (purified αvβ3 receptor; inhibition of specific [125I]echistatin 0.05 nM binding, 3 hours at room temperature, read-out: αvβ3 IC50 ± SD) was 0.59 ± 0.01 nM, the IC50 [1] was 15000 ± 1500 nM and the IC50 [2] was 400 ± 30 nM. The IC50 [3] was 3200 nM and the IC50 (purified αvβ5 receptor; inhibition of specific [125I]echistatin 0.15 nM binding, 3 hours at room temperature, read-out: αvβ5 IC50 ± SD) was 0.37 ± 0.01 nM.

In the case of CC[C@@]1(O)C(=O)OCc2c1cc1n(c2=O)Cc2c-1nc1ccccc1c2/C=N\OCCNC(=O)CCC(=O)NCc1ccc(C[C@@H]2NC(=O)[C@@H](Cc3ccccc3)NC(=O)[C@H](CC(=O)O)NC(=O)CNC(=O)[C@H](CCCNC(=N)N)NC2=O)cc1 [ST2724], the IC50 (purified αvβ3 receptor) is reported as 7.27 ± 0.06 nM, the IC50 [1] is reported as 4700 ± 400 nM and the IC50 [2] is reported as 160 ± 1 nM. It also gave an IC50 [3] of 4300 nM and an IC50 (purified αvβ5 receptor) of 8.39 ± 0.07 nM.

Compound CC[C@@]1(O)C(=O)OCc2c1cc1n(c2=O)Cc2c-1nc1ccccc1c2/C=N\OCCNC(=O)COCCOCCOCC(=O)NCc1ccc(C[C@@H]2NC(=O)[C@@H](Cc3ccccc3)NC(=O)[C@H](CC(=O)O)NC(=O)CNC(=O)[C@H](CCCNC(=N)N)NC2=O)cc1 [ST2742] has an IC50 (purified αvβ3 receptor) of 12.5 ± 2.1 nM, an IC50 [1] of 27000 ± 3900 nM and an IC50 [2] of 180 ± 10 nM. The IC50 [3] was 740 nM and 700 nM and the IC50 (purified αvβ5 receptor) was 6.5 ± 0.03 nM.
